Laboratory results: the OPERA property sets (Mansouri et al. 2018)

Conditions: for log10 BCF / log10 biotransformation half-life (days): fish

SMILES | boiling point [°C] | melting point [°C] | also measured
CCCCC#CCCCCC | 198 | -74.1 | –
CCN(C(C)=O)C(C)=O | 197 | – | –
CN1CCN(C(=O)OC2C3=C(SCCS3)C(=O)N2c2ccc3ccc(Cl)nc3n2)CC1 (stereo unspecified) | – | 280 | –
O=c1[nH]c(=O)n(C2CCCO2)cc1F (stereo unspecified) | – | 172 | –
CC(C)c1ccccc1 | 152 | -96 | log10 Henry constant (atm·m³/mol): -1.94; log10 Koa: 3.98; log10 biodegradation half-life (days): 1.18; log10 vapour pressure (mmHg): 0.653; ready biodegradability: readily biodegradable; log10 BCF: 1.55
O=C1CN(N=Cc2ccc([N+](=O)[O-])o2)C(=O)N1 | – | 263 | –
CNC(=O)Oc1ccccc1C1OCCO1 | – | 114 | log10 Koc (L/kg): 1.6; log10 vapour pressure (mmHg): -6.52
CCC(C)OC(C)CC (stereo unspecified) | – | -100 | log10 vapour pressure (mmHg): 1.21
COP(=S)(OC)SCN1C(=O)c2ccccc2C1=O | – | 72 | log10 Koc (L/kg): 2.91; log10 vapour pressure (mmHg): -6.31; log10 BCF: 0.26
S=C1CCCCCN1 | – | 108 | –
C1=CCSC1 | 122 | – | –
Oc1ccc(C(c2ccc(O)cc2)(C(F)(F)F)C(F)(F)F)cc1 | – | 162 | –
CCCCc1cc(C)ccc1O | 228 | 19 | –
CC(C)(Cl)Cl | 69.3 | -33.8 | –
Cc1cccc2ccc(Cl)nc12 | 287 | 61 | –
CCCCCCCCSC#N | – | 105 | –
CC(C)C(=NO)C(C)C | 181 | 34 | –
CC(C)ON=O | 40 | – | –
CCOc1ccc(NC(=O)CN)cc1 | – | 100 | –
Brc1cc(Br)c(Oc2c(Br)cc(Br)c(Br)c2Br)cc1Br | – | – | logP: 8.27; log10 biotransformation half-life (days): 1.65
Oc1ccccc1 | 182 | 40.9 | log10 Henry constant (atm·m³/mol): -6.48; log10 Koc (L/kg): 1.43; log10 vapour pressure (mmHg): -0.456; ready biodegradability: readily biodegradable; log10 BCF: 1.24
O=C(O)CCc1ccc(O)cc1 | – | 131 | –
O=C1c2ccccc2Cc2ccccc21 | – | 155 | –
CC(O)CNCCN (stereo unspecified) | – | -50 | –
Cc1c[nH]c(=O)[nH]c1=O | – | 316 | –

SMILES | boiling point [°C] | melting point [°C] | also measured
ONc1ccccc1 | – | 83.5 | –
O=CC1CCC=CO1 (stereo unspecified) | 146 | – | –
O=C1C=CC(=O)N1c1ccc(Cc2ccc(N3C(=O)C=CC3=O)cc2)cc1 | – | – | ready biodegradability: not readily biodegradable
Clc1cncc(Cl)n1 | – | 56.5 | –
CC1(C)C=Cc2c(ccc3c2OC2c4ccc(O)cc4OCC32)O1 (stereo unspecified) | – | 178 | –
CC1CCC(=O)N1C (stereo unspecified) | 217 | – | –
CC=NNc1ccccc1 | – | 99.5 | –
CCOP(=S)(OCC)Oc1ccc(=O)n(-c2ccccc2)n1 | – | 55 | log10 vapour pressure (mmHg): -7.96; log10 BCF: 0.67; log10 biotransformation half-life (days): -0.7
C[C@@H](Cc1ccccc1)NCCC(c1ccccc1)c1ccccc1 | – | 36.5 | –
O=C(Cl)OCc1ccccc1 | 152 | – | log10 vapour pressure (mmHg): -2.51
CCN(CC)c1ccc(C=NN(c2ccccc2)c2ccccc2)cc1 | – | 94.5 | –
C/C=C(\C)C(=O)O | 198 | 64.5 | log10 vapour pressure (mmHg): -0.875
CN(C)C(=O)N[C@@H]1C[C@@H]2C[C@H]1[C@@H]1CCC[C@H]21 | – | 177 | –
N#Cc1c(F)c(F)c(F)c(F)c1F | 162 | 2.4 | –
COc1ccc(Br)cc1 | 215 | 13.5 | log10 vapour pressure (mmHg): -0.692
CC(C)(SC(=O)N1CCCCC1)c1ccccc1 | – | 39 | log10 vapour pressure (mmHg): -5.4
O=C1CCO1 | 162 | -33.4 | ready biodegradability: readily biodegradable
CC[N+]1(CC)CCC(OC(=O)C(O)(c2ccccc2)c2ccccc2)C1.[Br-] (stereo unspecified) | – | 204 | –
CC(C)NCC(O)c1ccc(NS(C)(=O)=O)cc1 (stereo unspecified) | – | 207 | –
c1csc(-c2ccc(-c3cccs3)s2)c1 | – | 93.5 | –
CCOC(=O)C(C)OC(=O)c1cc(Oc2ccc(C(F)(F)F)cc2Cl)ccc1[N+](=O)[O-] (stereo unspecified) | – | 45 | log10 Koc (L/kg): 4
C=CC(O)CC (stereo unspecified) | 115 | – | –
O=C(O)/C=C(/Br)C(=O)O | – | 163 | –
Nc1ccc(Nc2ccccc2)cc1 | 354 | 66 | log10 vapour pressure (mmHg): -4.92
O=C(O)C(=O)c1ccccc1 | – | 66 | –

SMILES | boiling point [°C] | melting point [°C] | also measured
CC(=O)Nc1ccc(Cl)c(Cl)c1 | – | – | log10 Koc (L/kg): 2.34
COc1ccc(C(=O)O)cc1OC | – | 181 | log10 vapour pressure (mmHg): -3.61
CCC=CCC(=O)OCC | 166 | – | –
CCCCCCCCN(C)C | 191 | -57 | –
Oc1ccc2c3c1O[C@H]1[C@@H](O)C=C[C@H]4[C@H](C2)NCC[C@@]341 | – | 273 | –
COc1cc(O)c(C(=O)c2ccccc2)c(O)c1 | – | 130 | –
CCc1cccc(C(C)C)c1 | 192 | – | –
Cc1ccccc1S | 195 | 15 | log10 vapour pressure (mmHg): -0.193
CCOP(=S)(OCC)SC1OCCOC1SP(=S)(OCC)OCC (stereo unspecified) | – | -20 | –
CC(C)(C)C(=O)C=Cc1ccccc1 | – | 43 | –
N#CC1=C(C#N)C(=O)C(Cl)=C(Cl)C1=O | – | 214 | –
C=CC(=O)NCOCCCC | – | – | ready biodegradability: readily biodegradable
c1ccc2c(c1)Nc1ccccc1O2 | – | 156 | –
CCCCOC(=O)OCCCC | 170 | – | –
BrCI | 140 | – | –
CCC(Br)C(Br)Br (stereo unspecified) | 216 | – | –
FC(F)(Br)C(F)(F)C(F)(F)C(F)(F)C(F)(F)C(F)(F)C(F)(F)C(F)(F)Br | 180 | – | –
O=C(C1CC1)C1CC1 | 161 | – | –
O=S(=O)(O)C(F)(F)C(F)(F)C(F)(F)C(F)(F)C(F)(F)F | 225 | – | –
CCCCCCCCCCCCCCCCCC(=O)OC1CCCCC1 | – | 44 | –
C=C(C)C(C)Cl (stereo unspecified) | 94 | – | –
C1=CC=CC=CC=C1 | 140 | -4.7 | log10 vapour pressure (mmHg): 0.892
O=C1/C(=C/c2ccc(O)c(O)c2)Oc2cc(O)ccc21 | – | 303 | –
C[C@]12CC[C@H](O)C=C1CC[C@@H]1[C@@H]2CC[C@]2(C)[C@@H](c3ccc(=O)oc3)CC[C@]12O | – | 235 | –
CCC=CCC(=O)O | 208 | 12 | –

SMILES | boiling point [°C] | melting point [°C] | also measured
CC(C)NCC(O)COc1cccc2c1C=CC2 (stereo unspecified) | – | 88.5 | –
N#CC(O)c1ccccc1 (stereo unspecified) | – | -10 | –
CC(=O)NCC1(c2ccccc2)CCN(CCCC(=O)c2ccc(F)cc2)CC1 | – | 98.5 | –
Clc1ccc2c(Cl)c(Cl)c(Cl)c(Cl)c2c1 | – | – | log10 vapour pressure (mmHg): -5.96
Clc1cc(Cl)cc(-c2cc(Cl)c(Cl)c(Cl)c2Cl)c1 | – | – | log10 Henry constant (atm·m³/mol): -4.7
Clc1cccc(Cl)c1Cl | 218 | 53.5 | log10 Henry constant (atm·m³/mol): -2.9; log10 Koa: 5.19; log10 Koc (L/kg): 3.33; log10 vapour pressure (mmHg): -0.678; ready biodegradability: not readily biodegradable; log10 BCF: 2.82; log10 biotransformation half-life (days): 0.92
FC(F)(F)CCCl | 45.1 | -106 | –
O=c1c(-c2ccccc2)c1-c1ccccc1 | – | 119 | –
Clc1cc2c(c(Cl)c1Cl)Oc1c(Cl)c(Cl)c(Cl)c(Cl)c1O2 | – | 264 | log10 Koa: 11.4; log10 vapour pressure (mmHg): -10.2; log10 BCF: 3.67; log10 biotransformation half-life (days): 1.21
CCCCCNCCCCC | 202 | – | log10 vapour pressure (mmHg): -0.815; ready biodegradability: readily biodegradable
CCCOc1ccc([N+](=O)[O-])cc1NC(C)=O | – | 102 | –
O=S(=O)(c1ccccc1)c1ccccc1 | 279 | 128 | –
CC(=O)c1ccccn1 | 192 | – | –
NS(=O)(=O)c1cc(C(=O)c2ccc(O)cc2)cs1 | – | 192 | –
O=C(Oc1cccc(O)c1)c1ccccc1 | – | 134 | ready biodegradability: readily biodegradable
ICCI | 200 | 83 | –
CCC(=O)C(C)C | 114 | – | log10 vapour pressure (mmHg): 1.26
CCn1cc(C(=O)O)c(=O)c2cnc(N3CCCC3)nc21 | – | 315 | –
CN=C(O)Oc1cccc(C)c1 | – | 76.5 | log10 vapour pressure (mmHg): -2.97; ready biodegradability: not readily biodegradable
C=C(C)C(C)CC (stereo unspecified) | 84.3 | -134 | log10 vapour pressure (mmHg): 1.91
C=CC(=O)OCC(CC)(COC(=O)C=C)COC(=O)C=C | – | – | ready biodegradability: not readily biodegradable
CCOc1ccc(OCC)cc1 | 246 | 72 | –
O=[N+]([O-])c1cc(C(F)(F)F)c(Cl)c([N+](=O)[O-])c1Nc1ncc(C(F)(F)F)cc1Cl | – | 113 | –
Sc1ccccn1 | – | 129 | –
O=C1CCSc2ccccc21 | – | 29 | –

SMILES | boiling point [°C] | melting point [°C] | also measured
CCCCCCCCCC(=O)OC(=O)CCCCCCCCC | – | 24.7 | –
Cc1cccc(-c2ccccc2C)c1 | 270 | – | –
CCCCCCCCCCCC(=O)[O][Na] | – | – | ready biodegradability: readily biodegradable
CN(C)C(=O)CCCOC(=O)c1ccccc1 | – | 40.5 | –
Cc1cc(=O)n(-c2ccccc2)[nH]1 | – | 128 | –
Cc1cc(=O)cc(C)o1 | 251 | 132 | –
CC1(C)O[C@@H]2C[C@H]3[C@@H]4C[C@H](F)C5=CC(=O)C=C[C@]5(C)[C@@]4(F)[C@@H](O)C[C@]3(C)[C@]2(C(=O)CO)O1 | – | 266 | –
C#CCI | 115 | – | –
C=C(C)C1CCC=C(C)C1 (stereo unspecified) | 176 | – | –
NS(=O)(=O)c1cc2c(cc1C(F)(F)F)NC(Cc1ccccc1)NS2(=O)=O (stereo unspecified) | – | 222 | –
CC(=O)Nc1ccccc1 | 304 | 114 | log10 Koc (L/kg): 1.43; log10 vapour pressure (mmHg): -3.7; ready biodegradability: readily biodegradable
C=COCCCl | 108 | -70 | log10 vapour pressure (mmHg): 1.43; ready biodegradability: readily biodegradable
FC(F)=C(F)C(F)(F)F | -29.6 | -156 | log10 vapour pressure (mmHg): 3.69
CN1CC1 | 27.5 | – | –
O/N=C\c1cc[n+](COC[n+]2ccc(/C=N\O)cc2)cc1.[Cl-].[Cl-] | – | 220 | –
O=C1OC(=O)C(F)(F)C1(F)F | 54.5 | – | –
COc1ccc2c(c1)N(CCCN(C)C)c1ccccc1S2 | – | 46 | –
N=C(N)c1ccc(Oc2ccc(C(=N)N)cc2)cc1 | – | 216 | –
CCc1cccc(C)c1N | 231 | -33 | –
O=C(Cl)C(Cl)(Cl)Cl | 118 | – | log10 Henry constant (atm·m³/mol): -3.29; log10 vapour pressure (mmHg): 1.33
CCCCCCCCCCCCCCCCCCCCCCCCCCCCCCCCCCCCC | 505 | – | ready biodegradability: readily biodegradable
COC(C)(C)OC | 83 | -47 | log10 vapour pressure (mmHg): 2.01
CCCCCCCCCCC1CCCCC1 | 299 | -1.7 | log10 vapour pressure (mmHg): -2.99
CC(O)c1ccccc1 (stereo unspecified) | 205 | 15 | log10 Koc (L/kg): 1.5; ready biodegradability: readily biodegradable
